Test results from paper PMC7870626, “Neurotoxicity and underlying cellular changes of 21 mitochondrial respiratory chain inhibitors” (Archives of Toxicology, 2021).
“Also recorded” adds a separate entry of the source.

Experiments:
LUHMES cells [1] = experiment: NeuriTox test: neurite area and viability, 24 h; type: cell-based, human; conditions: Homo sapiens
Procedure: (§1) The NeuriTox test was performed as previously described (Delp et al. [2018b]; Krug et al. [2013a]; Stiegler et al. [2011]). Briefly, cells differentiated for 48 h were re-seeded into 96-well plates at a density of 100,000 cells/cm^2 in DM without cAMP and GDNF, and treated 1 h after seeding for 24 h. Subsequently, multiple endpoints were determined, e.g., neurite outgrowth (i.e., NeuriTox test), resazurin reduction, intracellular ATP content, gene expression levels from TempO-Seq analysis, and proteasomal activity. For the 120 h exposure scenario, LUHMES cells were differentiated for another 3 days after reseeding before they were treated on day 5 (d5) and d7 by a half medium exchange. Endpoints were determined on d10 of differentiation.
(§2) Image acquisition and analysis was performed as described previously (Krug et al. [2013a]; Schildknecht et al. [2013]; Stiegler et al. [2011]). In brief, cells were live-stained with 1 µg/ml Hoechst H-33342 and 1 µM calcein-AM and image acquisition was done by an automated high content imager (Cellomics, Waltham, MA, USA). Cell viability was determined as ratio of live cells (cell bodies being Calcein- and Hoechst-positive) relative to the total amount of cells (Hoechst-positive cell bodies). Neurite area was calculated by subtracting the somatic area (Hoechst-positive area plus surrounding) from the calcein-positive area.

U2OS cells = experiment: cells; type: cell-based; conditions: Homo sapiens, U2OS, 24 h, read-out: Cytotox EC25 U2OS
Procedure: A cell suspension of 100,000 cells/ml was prepared in assay medium, and white 384-well plates were filled with 30 µl/well cell suspension. Twenty-four hours after seeding, a dilution series of test compound, as well as positive and negative controls, were added to the cells. After 24 h exposure, the medium was removed, and 10 µl of Triton X-100 lysis buffer was added to each well. The luminescent signal was determined in a luminometer by injecting BDS Illuminate Mix and measuring the light emission. The Cytotox CALUX cell line constitutively expresses a high level of luciferase protein; the light emission is therefore proportional to the cell number of live cells, and its decrease can be used as measure of cytotoxicity. The light emission generated by cells exposed to vehicle control was set to 100%, and the luminescence of cells exposed to the positive control toxicant tributyltin acetate [100 µM] was set to 0%. The light output of the cells exposed to different concentrations of test compounds was scaled accordingly.

LUHMES cells [2] = experiment: LUHMES 120 h exposure scenario, neurite effects; type: cell-based, human
Procedure: as §1, §2

SH-SY5Y cells [3] = type: cell-based, human; conditions: 120 h exposure, up to 10 µM
Procedure: The cells are able to form neurites and display several dopaminergic characteristics. […] Differentiation was initiated 24 h later (on day 0, d0) by exchange to 100 µl/well differentiation medium (DMEM:F12, supplemented with 1 µM all-trans retinoic acid (RA), 1 × N2 supplement, 2 mM L-glutamine, 100 µg/ml streptomycin, and 100 U/ml penicillin). All media and supplements were obtained from Gibco (ThermoFisher) except from RA (Sigma).
On d3, 100 µl of fresh differentiation medium were added to the wells. For the 120 h exposure, this medium contained twice the final treatment concentration. On d6, 100 µl from each well were removed, and the procedure was repeated and the cells were analyzed on d8. For the 24 h exposure, cells received an addition of 100 µl pure differentiation medium on d3 and were treated with compounds as described above on d6 for 24 h before analysis. […] The cells were incubated with the stain mixture for 20 min at 37 °C, 5% CO2. After incubation, 130 µL of differentiation medium were added to all the wells to stop further staining of the cells. Images were obtained using ImageXpress® Micro (Molecular Devices). […] The mean neurite length was calculated using the Neurite Outgrowth plug-in in the MetaXpress® Software. Outgrowths were defined as cytoplasmic prolongations with a maximum width of 2 µm (3 pixels). The minimum outgrowth size needed to be logged as significant was defined as 15 µm (23 pixels).

LUHMES cells [4] = experiment: Intracellular ATP content after NeuriTox exposure; type: cell-based; conditions: Homo sapiens; NeuriTox exposure scheme, 24 h; read-out: LUHMES 24 h EC25 ATP (converted)
Procedure: as §1
Plates from the NeuriTox test were further used after imaging for determination of alternative endpoints. Intracellular ATP was determined as described earlier (Delp et al. [2019]). In brief, CellTiterGlo 2.0 assay mix (Promega) containing luciferase was added after imaging, and luminescence was recorded. For the determination of resazurin reduction, a 10 × resazurin stock solution was added after imaging to the medium (final resazurin concentration 2 µg/ml) (Delp et al. [2018a]). After 60 min incubation, resazurin fluorescence was recorded (ex: 530 nm, em: 590 nm). Background-corrected data was used for further analysis.

SH-SY5Y cells [5] = experiment: Mitochondrial membrane potential (rhodamine 123), KE2 assay; type: cell-based, human; conditions: Homo sapiens, SH-SY5Y, 24 h, read-out: pEC25 MMP (concentration where MMP was reduced by 25%)
Procedure: Cells were plated at a cell density of 29,500 cells/cm^2 and handled as described above for the neurite SH-SY5Y degeneration. On d6 of differentiation, 50% of the medium was replaced by differentiation medium containing 2 µM Rhodamine 123 (ThermoFisher). After 45 min of preloading at 37 °C with 5% CO2 in darkness, the Rhodamine 123 solution was completely removed and cells were carefully washed once with 200 µl DMEM:F12. Subsequently, 50 µl differentiation medium per well were added followed by the addition of 50 µl/well of test compounds in medium. After 24 h of exposure to the test compounds, the nuclei were stained for 30 min with 20 µL of a solution containing 20 µM Hoechst 33342, and the images were then acquired with a 10 × objective lens using the ImageXpress® Micro (Molecular Devices) high content microplate imager. Nuclei were evaluated in the DAPI channel (excitation 377 ± 50 nm, emission 447 ± 60 nm), whereas Rhodamine 123 fluorescence was detected in the FITC channel (excitation 475 ± 34 nm, emission 536 ± 40 nm). Analysis of the Hoechst 33,342 and Rhodamine 123 fluorescence was performed using the MetaXpress® Software (Molecular Devices) with the Transfluor HT plug-in and the parameters nuclei (for Hoechst-33342) and integrated granule intensity (for Rhodamine 123). Mitochondrial membrane potential (MMP) was quantified as the total fluorescence intensity of Rhodamine 123 in relation to the number of Hoechst-stained nuclei.

`Cc1nn(C)c(Oc2ccccc2)c1C=NOCc1ccc(C(=O)OC(C)(C)C)cc1` [Fenpyroximate] showed an EC25 (LUHMES cells [1]; NeuriTox exposure scheme, 24 h, read-out: LUHMES 24 h EC25 NA (neurite area) (converted)) of 15.8 µM, an EC25 (LUHMES cells [1]; NeuriTox exposure scheme, 24 h, read-out: LUHMES 24 h EC25 V (viability) (converted)) of 39.8 µM and an EC25 (LUHMES cells [1]; NeuriTox test, neurite outgrowth impairment, LUHMES 24 h, read-out: EC25 KE4 (AO) Neurite toxicity (converted)) of 15.8 µM. The EC25 (U2OS cells) was > 50.1 µM, the “Increase in sensitivity of neurite EC25, 120 h versus 24 h exposure” value (LUHMES cells [2]) was “five-to-eightfold” and the “Neurite degeneration (in words)” value (SH-SY5Y cells [3]) was “degeneration of neurites; also recorded: increased neurite degeneration”. For the same molecule, the Reduction in viability (SH-SY5Y cells [3]) was > 25%, the EC25 (LUHMES cells [4]) was 12.6 µM and the EC25 (SH-SY5Y cells [5]) was 0.794 µM.
